Laboratory results from patent US8546608B2, “Proteasome inhibitors and methods of using the same” (Cephalon, Inc., priority 2003, dated 2013).
Structures can show the parent of a compound that is named as a salt.

Columns and labels:
[1] = target: T1, 20S Human Erythrocyte Proteasome (HEP) (Homo sapiens, UniProt P20618+P28074); assay: Chymotrypsin-like activity of 20S Human Erythrocyte Proteasome (HEP), IC50 determination; assay type: biochemical; conditions: assay of Example C, inhibition of HEP
T1 construct: 20S Human Erythrocyte Proteasome (HEP), purchased from Immatics Biotechnologies Inc; purchased Immatics Biotechnologies Inc., Tübingen, Germany; host or cells: human erythrocytes (natural source)
Method in brief: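 20S proteasome at 0.2 μg/mL (about 0.6 nM catalytic sites) in 20 mM Tris with 0.04% SDS, preincubated 15 min at 37° C with inhibitor before Suc-LLVY-AMC (100 μM final). AMC fluorescence read in the linear range; triplicates, IC50 from concentration series.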

[2] = target: T2, proteasome in Molt-4 cells (human leukemia) (Homo sapiens, UniProt P20618+P28074); assay type: cell-based; conditions: assay of Example E, inhibition of MOLT4; read-out: MOLT4 (EC50)
T2 sequence (P28074 60-263): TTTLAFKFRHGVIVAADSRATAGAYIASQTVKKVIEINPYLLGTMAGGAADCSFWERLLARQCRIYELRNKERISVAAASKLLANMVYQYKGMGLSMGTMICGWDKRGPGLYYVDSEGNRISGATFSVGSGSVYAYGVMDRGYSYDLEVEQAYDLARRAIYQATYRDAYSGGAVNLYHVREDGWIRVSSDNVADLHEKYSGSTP
T2 sequence (P20618 29-241): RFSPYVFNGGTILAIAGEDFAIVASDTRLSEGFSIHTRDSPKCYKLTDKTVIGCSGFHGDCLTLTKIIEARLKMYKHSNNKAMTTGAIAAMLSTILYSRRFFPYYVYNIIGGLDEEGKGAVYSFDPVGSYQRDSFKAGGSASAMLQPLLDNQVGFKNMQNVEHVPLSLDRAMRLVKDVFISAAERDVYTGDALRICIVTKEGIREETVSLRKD
Method in brief: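 Intact Molt-4 cells (6×10^6 cells/mL) in HEPES-buffered saline were preincubated with inhibitor 15 min at 37 °C, then given cell-permeable MeOSuc-FLF-AFC at 25 μM final.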

`CCCCCCCCCCCC(=O)N[C@@H](CCCNC(=N)N[N+](=O)[O-])C(=O)N[C@@H](CC(C)C)B1O[C@@H]2C[C@@H]3C[C@@H](C3(C)C)[C@]2(C)O1` [D.3.7, Dodecanamide,N-[(1S)-1-[[[(1R)-1-[(3aS,4S,6S,7aR)-hexahydro-3a,5,5-trimethyl-4,6-methano-1,3,2-benzodioxaborol-2-yl]-3-methylbutyl]amino]carbonyl]-4-[[imino(nitroamino)methyl]amino]butyl]] was tested, and the IC50 [1] was less than 10 nM and the EC50 [2] was less than 200 nM.

For `CC(C)C[C@H](NC(=O)[C@H](CCCNC(=N)N[N+](=O)[O-])NC(=O)/C=C/c1ccc(Br)cc1)B(O)O` [D.7.32, Boronic acid, [(1R)-1-[[(2S)-5-[[imino(nitroamino)methyl]amino]-2-[((E)-3-(4-bromophenyl)prop-2-enoyl)amino]-1-oxopentyl]amino]-3-methylbutyl]], the IC50 [1] was less than 10 nM and the EC50 [2] was 2000 to 10000 nM.

With `CC(C)C[C@H](NC(=O)[C@H](CCCNC(=N)N[N+](=O)[O-])NC(=O)CCCCCCCCCCCN1C(=O)c2ccccc2C1=O)B1O[C@@H]2C[C@@H]3C[C@@H](C3(C)C)[C@]2(C)O1` [D.3.189, 12-(1,3-Dioxo-1,3-dihydro-isoindol-2-yl)-dodecanamide, N-[(1S)-1-[[[(1R)-1-[(3aS,4S,6S,7aR)-hexahydro-3a,5,5-trimethyl-4,6-methano-1,3,2-benzodioxaborol-2-yl]-3-methylbutyl]amino]carbonyl]-4-[[imino(nitroamino)methyl]amino]butyl]] the IC50 [1] was less than 10 nM and the EC50 [2] was less than 200 nM.

`COCCOCCOCC(=O)NCC(=O)N[C@@H](CC(C)C)B1O[C@@H]2C[C@@H]3C[C@@H](C3(C)C)[C@]2(C)O1` [D.2.8, 2-[2-(2-methoxyethoxy)ethoxy]acetamide,N-[1-[[[(1R)-1-[(3aS,4S,6S,7aR)-hexahydro-3a,5,5-trimethyl-4,6-methano-1,3,2-benzodioxaborol-2-yl]-3-methylbutyl]amino]carbonyl]methyl]] was tested, and the IC50 [1] was less than 100 nM and the EC50 [2] was less than 200 nM.

`CCOC(=O)/C=C/C(=O)N[C@@H](CCCNC(=N)N[N+](=O)[O-])C(=O)N[C@@H](CC(C)C)B1O[C@@H]2C[C@@H]3C[C@@H](C3(C)C)[C@]2(C)O1` [D.1.8, (E)-3-(Ethoxycarbonyl)acrylamide,N-[(1S)-1-[[[(1R)-1-[(3aS,4S,6S,7aR)-hexahydro-3a,5,5-trimethyl-4,6-methano-1,3,2-benzodioxaborol-2-yl]-3-methylbutyl]amino]carbonyl]-4-[[imino(nitroamino)methyl]amino]butyl]] showed an IC50 [1] of less than 10 nM and an EC50 [2] of 200 to 2000 nM.

With `Cc1ccc(/C=C/C(=O)N[C@@H](CCCNC(=N)N[N+](=O)[O-])C(=O)N[C@@H](CC(C)C)B(O)O)cc1` [E.2.60, Boronic acid, [(1R)-1-[[(2S)-5-[[imino(nitroamino)methyl]amino]-2-[[3-(4-methylphenyl)acryl]amino]-1-oxopentyl]amino]-3-methylbutyl]] the IC50 [1] was less than 10 nM and the EC50 [2] was 2000 to 10000 nM.

Work on `CC(C)C[C@H](NC(=O)[C@H](CCCNC(=N)N[N+](=O)[O-])NC(=O)COc1ccc2ccccc2c1)B(O)O` [E.1.11, Boronic acid, [(1R)-1-[[(2S)-5-[[imino(nitroamino)methyl]amino]-2-[(2-(naphthalen-2-yloxy)acetyl]amino]-1-oxopentyl]amino]-3-methylbutyl]] yielded an IC50 [1] of less than 10 nM and an EC50 [2] of 200 to 2000 nM.

`CC(C)C[C@H](NC(=O)[C@H](CCCNC(=N)N[N+](=O)[O-])NC(=O)C1CCCCC1)B(O)O` [E.2.14, Boronic acid, [(1R)-1-[[(2S)-5-[[imino(nitroamino)methyl]amino]-2-[(cyclohexanecarbonyl)amino]-1-oxopentyl]amino]-3-methylbutyl]] gave an IC50 [1] of less than 10 nM and an EC50 [2] greater than 10000 nM.

With `Cc1cccc(/C=C/C(=O)N[C@@H](CCCNC(=N)N[N+](=O)[O-])C(=O)N[C@@H](CC(C)C)B(O)O)c1` [E.2.33, Boronic acid, [(1R)-1-[[(2S)-5-[[imino(nitroamino)methyl]amino]-2-[[(E)-3-(3-methylphenyl)acryl]amino]-1-oxopentyl]amino]-3-methylbutyl]] the IC50 [1] was less than 10 nM and the EC50 [2] was 2000 to 10000 nM.

`CCCCCCCNC(=O)N[C@@H](CCCNC(=N)N[N+](=O)[O-])C(=O)N[C@@H](CC(C)C)B1O[C@@H]2C[C@@H]3C[C@@H](C3(C)C)[C@]2(C)O1` [D.6.3, N-[(1S)-1-[[[(1R)-1-[(3aS,4S,6S,7aR)-hexahydro-3a,5,5-trimethyl-4,6-methano-1,3,2-benzodioxaborol-2-yl]-3-methylbutyl]amino]carbonyl]-4-[[imino(nitroamino)methyl]amino]butyl]-N′-heptyl urea] showed an IC50 [1] of less than 10 nM and an EC50 [2] of less than 200 nM.

`CC(C)C[C@H](NC(=O)[C@H](CCCNC(=N)N[N+](=O)[O-])NC(=O)c1cccc(F)c1F)B(O)O` [E.2.11, Boronic acid, [(1R)-1-[[(2S)-5-[[imino(nitroamino)methyl]amino]-2-[(2,3-difluorobenzoyl)amino]-1-oxopentyl]amino]-3-methylbutyl]] gave an IC50 [1] of less than 10 nM and an EC50 [2] greater than 10000 nM.

With `CC(C)C[C@H](NC(=O)[C@H](CCCNC(=N)N[N+](=O)[O-])NC(=O)c1ccc(Br)cc1)B(O)O` [D.7.39, Boronic acid, [(1R)-1-[[(2S)-5-[[imino(nitroamino)methyl]amino]-2-[(4-bromobenzoyl)amino]-1-oxopentyl]amino]-3-methylbutyl]] the IC50 [1] was less than 10 nM and the EC50 [2] was 2000 to 10000 nM.

`CC(C)C[C@H](NC(=O)[C@H](CCCNC(=N)N[N+](=O)[O-])NC(=O)CC12CC3CC(CC(C3)C1)C2)B1O[C@@H]2C[C@@H]3C[C@@H](C3(C)C)[C@]2(C)O1` [D.3.58, 2-Adamantan-1-ylacetamide,N-[(1S)-1-[[[(1R)-1-[(3aS,4S,6S,7aR)-hexahydro-3a,5,5-trimethyl-4,6-methano-1,3,2-benzodioxaborol-2-yl]-3-methylbutyl]amino]carbonyl]-4-[[imino(nitroamino)methyl]amino]butyl]] showed an IC50 [1] of less than 10 nM and an EC50 [2] of less than 200 nM.

`CCCCC[C@H]1CC[C@H](C(=O)N[C@@H](CCCNC(=N)N[N+](=O)[O-])C(=O)N[C@@H](CC(C)C)B(O)O)CC1` [E.2.6, Boronic acid, [(1R)-1-[[(2S)-5-[[imino(nitroamino)methyl]amino]-2-[(trans-4-pentylcyclohexanecarbonyl)amino]-1-oxopentyl]amino]-3-methylbutyl]] showed an IC50 [1] of less than 10 nM and an EC50 [2] of 200 to 2000 nM.

For `COC(=O)CCCC(=O)N[C@@H](CCCNC(=N)N[N+](=O)[O-])C(=O)N[C@@H](CC(C)C)B1O[C@@H]2C[C@@H]3C[C@@H](C3(C)C)[C@]2(C)O1` [D.2.1, 4-(methoxycarbonyl)butanamide,N-[(1S)-1-[[[(1R)-1-[(3aS,4S,6S,7aR)-hexahydro-3a,5,5-trimethyl-4,6-methano-1,3,2-benzodioxaborol-2-yl]-3-methylbutyl]amino]carbonyl]-4-[[imino(nitroamino)methyl]amino]butyl]], the IC50 [1] was less than 10 nM and the EC50 [2] was 200 to 2000 nM.

For `CC(C)C[C@H](NC(=O)[C@H](CCCNC(=N)N[N+](=O)[O-])NC(=O)Cn1cnnn1)B(O)O` [E.2.53, Boronic acid, [(1R)-1-[[(2S)-5-[[imino(nitroamino)methyl]amino]-2-[[2-(tetrazol-1-yl)acetyl]amino]-1-oxopentyl]amino]-3-methylbutyl]], the IC50 [1] was less than 100 nM and the EC50 [2] was greater than 10000 nM.

In the case of `C/C(=C\c1ccccc1)C(=O)N[C@@H](CCCNC(=N)N[N+](=O)[O-])C(=O)N[C@@H](CC(C)C)B1O[C@@H]2C[C@@H]3C[C@@H](C3(C)C)[C@]2(C)O1` [D.3.26, (E)-2-Methyl-3-phenyl-acrylamide,N-[(1S)-1-[[[(1R)-1-[(3aS,4S,6S,7aR)-hexahydro-3a,5,5-trimethyl-4,6-methano-1,3,2-benzodioxaborol-2-yl]-3-methylbutyl]amino]carbonyl]-4-[[imino(nitroamino)methyl]amino]butyl]], the IC50 [1] is reported as less than 10 nM and the EC50 [2] is reported as less than 200 nM.

With `COc1ccc(CC(=O)N[C@@H](CCCNC(=N)N[N+](=O)[O-])C(=O)N[C@@H](CC(C)C)B(O)O)cc1` [E.2.37, Boronic acid, [(1R)-1-[[(2S)-5-[[imino(nitroamino)methyl]amino]-2-[[2-(4-methoxyphenyl)acetyl]amino]-1-oxopentyl]amino]-3-methylbutyl]] the IC50 [1] was less than 10 nM and the EC50 [2] was greater than 10000 nM.

`CCS(=O)(=O)NCCCCCCCC(=O)N[C@@H](CCCNC(=N)N[N+](=O)[O-])C(=O)N[C@@H](CC(C)C)B1O[C@@H]2C[C@@H]3C[C@@H](C3(C)C)[C@]2(C)O1` [D.1.13] showed an IC50 [1] of less than 10 nM and an EC50 [2] of 2000 to 10000 nM.

Compound `CCCCc1ccc(C(=O)N[C@@H](CNC(=O)c2ccc(-n3cncn3)cc2)C(=O)N[C@@H](CC(C)C)B(O)O)cc1` [E.5.40, Boronic acid, [(1R)-1-[[(2S)-3-(4-(1H-1,2,4-triazol-1-yl)benzoylamide)]-2-[(4-butylbenzoyl)amino]-1H-oxopropyl]amino]-3-methylbutyl] hydrochloride] has an IC50 [1] of less than 10 nM and an EC50 [2] of less than 200 nM.
